Literature values, collected in patent US8748497B2, “Optimized fluorocarbon emulsions for blood substitutes and other therapeutic uses” (Alliance Pharmaceutical Corp., priority 2006, dated 2014).

Details: components of FLUOSOL; cited from earlier work

Structure (SMILES)	rate constant for RES elimination (k24)
FC1(F)C(F)(F)C(F)(F)C2(F)C(F)(F)C(F)(F)C(F)(F)C(F)(F)C2(F)C1(F)F (centres unmarked) [F-decalin, perfluorodecalin]	0.10 day⁻¹
FC(F)(F)C(F)(F)C(F)(F)N(C(F)(F)C(F)(F)C(F)(F)F)C(F)(F)C(F)(F)C(F)(F)F [F-tripropylamine, perfluorotripropylamine]	0.011 day⁻¹
